These results are taken from article PMC10350928 (Journal of Medicinal Chemistry, 2023).

Series [1] has as its target T1, WT c-MET (Homo sapiens, UniProt P08581). Format: binding. Particulars: adenosine 500 μM, WT c-MET 7.4 μM, compound 100 μM.
Target sequence in this assay (P08581 1038-1348): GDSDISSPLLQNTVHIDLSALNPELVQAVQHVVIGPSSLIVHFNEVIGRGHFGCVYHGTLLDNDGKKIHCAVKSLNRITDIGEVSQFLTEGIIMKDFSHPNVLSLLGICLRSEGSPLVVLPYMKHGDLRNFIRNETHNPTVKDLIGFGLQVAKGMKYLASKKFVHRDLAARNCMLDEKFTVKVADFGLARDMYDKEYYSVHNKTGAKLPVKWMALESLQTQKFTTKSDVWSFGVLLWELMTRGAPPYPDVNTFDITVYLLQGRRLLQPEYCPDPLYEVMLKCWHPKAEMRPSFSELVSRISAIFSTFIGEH
For a further series, the system named is Rat hepatocytes. Nature of the series: Rat hepatocyte Clint. Particulars: for RH: rat hepatocytes.
The target in series [2] is T1, WT c-MET. Format: binding. Particulars: Table 1; LLE = pKd – log D.
Target sequence in this assay (P08581 25-1390): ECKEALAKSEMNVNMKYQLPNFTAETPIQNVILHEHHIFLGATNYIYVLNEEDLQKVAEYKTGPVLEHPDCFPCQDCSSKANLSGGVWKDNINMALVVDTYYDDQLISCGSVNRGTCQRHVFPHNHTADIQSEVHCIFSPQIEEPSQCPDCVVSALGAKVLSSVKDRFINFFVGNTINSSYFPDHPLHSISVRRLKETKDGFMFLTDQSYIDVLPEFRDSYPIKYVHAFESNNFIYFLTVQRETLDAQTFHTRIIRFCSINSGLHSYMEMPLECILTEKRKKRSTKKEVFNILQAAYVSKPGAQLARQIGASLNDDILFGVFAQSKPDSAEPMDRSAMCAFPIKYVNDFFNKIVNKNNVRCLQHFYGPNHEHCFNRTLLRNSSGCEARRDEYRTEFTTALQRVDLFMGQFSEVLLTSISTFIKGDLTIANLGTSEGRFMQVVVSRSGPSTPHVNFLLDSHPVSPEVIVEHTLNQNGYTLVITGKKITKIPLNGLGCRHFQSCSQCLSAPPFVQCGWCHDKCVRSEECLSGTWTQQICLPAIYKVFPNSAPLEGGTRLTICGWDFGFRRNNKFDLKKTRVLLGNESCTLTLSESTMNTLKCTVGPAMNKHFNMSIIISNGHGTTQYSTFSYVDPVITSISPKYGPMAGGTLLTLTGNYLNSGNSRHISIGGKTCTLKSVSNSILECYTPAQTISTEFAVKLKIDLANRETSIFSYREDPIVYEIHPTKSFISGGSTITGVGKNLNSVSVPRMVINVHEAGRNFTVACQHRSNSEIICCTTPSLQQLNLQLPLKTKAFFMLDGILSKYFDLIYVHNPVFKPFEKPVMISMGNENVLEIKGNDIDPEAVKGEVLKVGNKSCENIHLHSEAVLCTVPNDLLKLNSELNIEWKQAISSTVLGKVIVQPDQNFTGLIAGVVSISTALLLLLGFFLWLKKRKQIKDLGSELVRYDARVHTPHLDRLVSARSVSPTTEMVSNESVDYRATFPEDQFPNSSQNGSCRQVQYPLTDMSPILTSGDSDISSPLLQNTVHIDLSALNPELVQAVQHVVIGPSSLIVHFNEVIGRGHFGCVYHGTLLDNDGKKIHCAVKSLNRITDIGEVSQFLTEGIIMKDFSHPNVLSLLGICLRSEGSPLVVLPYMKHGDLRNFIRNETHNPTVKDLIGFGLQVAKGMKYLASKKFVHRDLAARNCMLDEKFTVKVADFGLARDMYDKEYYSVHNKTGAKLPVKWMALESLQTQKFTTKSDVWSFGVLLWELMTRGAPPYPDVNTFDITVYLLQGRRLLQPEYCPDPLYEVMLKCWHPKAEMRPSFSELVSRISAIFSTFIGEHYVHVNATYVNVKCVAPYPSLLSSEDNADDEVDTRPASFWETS
The next series can be described thus: Log D shake-flask method. Particulars: octanol/water, pH 7.4, logD, Table 1, octanol and water at pH7.4.
The nature of series [3]: Rat plasma pharmacokinetics. Particulars: male, Han Wistar, iv, 0.5 mg/kg.
Another series has as its system P-gp (MDR1). Nature of the series: MDR1-MDCK permeability and efflux. Particulars: dog.
Series [4] has as its target T1, WT c-MET. In kind it is biochemical. Particulars: Table 3; LLE = pIC50 – log D.
Target sequence in this assay (P08581 25-1390): as above
The test system of a further series is Human hepatocytes. Nature of the series: Human hepatocyte Clint. Particulars: Table 4.
Another series concerns c-MET. Particulars: read-out: cell IC50 c-MET; cited from earlier work.
The next series has as its system RON. Particulars: read-out: cell IC50 RON; cited from earlier work.

By logD is commonly meant the decadic logarithm of the distribution of all forms, ionised or not, between an organic phase and buffer at a given pH. As usually defined, the clearance is a measure of how efficiently the substance is removed, as volume per time. The low end stands for a low capacity for elimination, the high end for a high capacity for elimination. For orientation: efflux ratio means the permeability from basolateral to apical divided by that in the opposite direction, in the common usage. What is called IC50 is the midpoint of a concentration-inhibition curve.

Molecules are shown by their SMILES.

Take `CC(c1ccccc1)n1cc(-c2cc(F)cc(F)c2)c(=O)[nH]c1=O` (centres unmarked) [Compound 2, 5-(3,5-Difluorophenyl)-1-(1-phenylethyl)pyrimidine-2,4(1H,3H)-dione]: at WT c-MET [1], the “competition with adenosine for binding to WT c-MET” value is reported as “clear competition”. For the same molecule, the RH with Rat hepatocytes (Table 1) came to 123 μL/min/10^6 cells. In addition, the “SPR assay LLE WT” value at WT c-MET [2] was determined as 2.4.
On to `CC(c1ccc(F)cc1)n1cc(-c2cc(F)cc(F)c2)c(=O)[nH]c1=O` (centres unmarked) [Compound 6, 5-(3,5-Difluorophenyl)-1-(1-(4-fluorophenyl)ethyl)pyrimidine-2,4(1H,3H)-dione], for which the RH in the series on Rat hepatocytes (Table 1) is given as 26.8 μL/min/10^6 cells. Further, in “Log D shake-flask method”, the logD was 3.3. Moreover, the “SPR assay LLE WT” value on WT c-MET [2] stood at 2.6.
Regarding `C[C@@H](c1ccc(F)cc1)n1cc(-c2cc(F)cc3cn[nH]c23)c(=O)[nH]c1=O` [Compound 27, (S)-5-(5-Fluoro-1H-indazol-7-yl)-1-(1-(4-fluorophenyl)ethyl)pyrimidine-2,4(1H,3H)-dione], in [3], the clearance worked out at 74 mL/min/kg. Further, the efflux ratio at 2 h, 10 μM in the series with P-gp (MDR1) is less than 7. The same molecule yielded an RH with Rat hepatocytes (Table 3) of 14.8 μL/min/10^6 cells. Besides, in the series with Rat hepatocytes (Table 4), the “Hepatocytes Rat” value was 14.8 μL/min/10^6 cells. Moreover, the “ADP-Glo assay LLE WT” value at WT c-MET [4] was determined as 4.1. The “Hepatocytes Human” value in the series on Human hepatocytes is 1.81 μL/min/10^6 cells.
In the case of `C[C@@H](Oc1cc(-c2cnn(C3CCNCC3)c2)cnc1N)c1c(Cl)ccc(F)c1Cl` [crizotinib], the IC50 with c-MET was […]; in the series on RON, […].
